# “Also recorded” adds a separate entry of the source.
# Legend:
# [1] = test system: Capan-2 pancreatic cancer cells; experiment: Capan-2 cell density with peptide; type: cell-based; conditions: increasing concentration; 3 or 5 days
# Method: FIG. 21B: Capan-2 pancreatic cancer cells were grown for 3 or 5 days in the presence of increasing concentration of Peptide A-8R [SEQ ID NO: 1] or vehicle and then cell density was measured.
# To determine if Peptide A-8R [SEQ ID NO: 1] can be cytotoxic to other cancer cells, a pancreatic cancer cell line, Capan-2, was also tested.
# LNCaP xenograft tumors = LNCaP xenograft tumors in nude mice, intratumoral injection; type: in vivo
# Method: FIG. 20: Peptide A-8R [SEQ ID NO: 1] inhibits the growth of LNCaP prostate xenograft tumors. LNCaP xenograft tumors were grown in nude mice to a size of 200-400 cubic mm and then treated with daily intratumoral injections of either Peptide A-8R [SEQ ID NO: 1] (80 mg/kg of animal) or Vehicle (DMSO) for seven days, after which the tumors were left untreated and allowed to grow for an additional 2-3 weeks. Each point represents the average tumor size of three animals plus/minus the standard deviations. Note that open squares or circles represent no treatment of either Peptide A-8R [SEQ ID NO: 1] or vehicle.
# This was analyzed using LNCaP xenograft tumors established in nude mice and direct injection of Peptide A-8R [SEQ ID NO: 1] (FIG. 20).
# [2] = test system: ACHN human kidney cancer cells; experiment: ACHN cell density with peptide; type: cell-based; conditions: even at 100 μM; 2 or 4 days; no endogenous sGCα1
# Method: FIG. 17C: ACHN human kidney cancer cells were grown for 2 or 4 days in the presence of increasing concentration of Peptide A-8R [SEQ ID NO: 1] or vehicle and then cell density was measured.
# [3] = test system: CWR22-Rv1 (androgen-refractory) cells; experiment: CWR22-Rv1 cell density with peptide; type: cell-based; conditions: 10 μM peptide; 1-8 hrs
# Method: FIG. 15C: CWR22-Rv1 (androgen-refractory) cells were grown for 1-8 hrs in the presence of 10 μM Peptide A-8R [SEQ ID NO: 1] or vehicle and then cell density was measured.
# (§1) To measure how rapid the cytotoxic effect of Peptide A-8R [SEQ ID NO: 1] occurs, LNCaP cells were treated with 10 μM peptide and incubated for 1-8 hrs. […] Using the same conditions, C81 cells were used to study the peptide effect on hormone-refractory prostate cancer cells.
# LNCaP cells = type: cell-based; parameters: cell death: dose or concentration left out as unconfirmed
# Method: FIG. 12B: LNCaP cells were grown without androgen for 2 or 4 days in the presence of increasing concentration of Peptide A-8R [SEQ ID NO: 1] (upper left), Peptide B-8R [SEQ ID NO: 2] (upper right), Peptide C-8R [SEQ ID NO: 3] (lower left), or Peptide D-8R [SEQ ID NO: 4] (lower right). The MTT reagent was used to measure cell density.
# FIG. 13A: LNCaP cells were grown with (Right) or without (Left) 1 nM androgen ([…]) for 3 or 6 days in the presence of increasing concentration of Peptide A-8R [SEQ ID NO: 1] or vehicle (70% DMSO). The MTT reagent was used to measure cell density.
# FIG. 13B: LNCaP cells were grown with (Right) or without (Left) 1 nM androgen (R1881) for 3 or 6 days in the presence of increasing concentration of Peptide C-8R [SEQ ID NO: 3] or vehicle and then cell density was measured.
# FIG. 14A: LNCaP cells were grown with (Right) or without (Left) 1 nM R1881 for 3 or 6 days in the presence of increasing concentration of Peptide A or vehicle and then cell density was measured.
# FIG. 14B: LNCaP cells were grown with (Right) or without (Left) 1 nM R1881 for 3 or 6 days in the presence of increasing concentration of Peptide A-8R [SEQ ID NO: 1] or vehicle and then cell density was measured.
# FIG. 15A: LNCaP cells were grown for 1-8 hrs in the presence of 10 μM Peptide A-8R [SEQ ID NO: 1] or vehicle and then cell density was measured.
# FIG. 19C: LNCaP cells were grown with for 12 or 48 hrs in the presence of increasing concentration of Peptide A-8R [SEQ ID NO: 1] (Left) or PeptideA-8R-Biotin [SEQ ID NO: 1] (Right) and then cell density was measured.
# Each peptide contained 8 arginines at the C-terminus, a sequence which is known to mediate plasma membrane translocation and cellular internalization.
# as §1
# LNCaP cell culture = type: cell-based
# Source text: In one non-limiting example, Peptide A-8R [SEQ ID NO: 1] can be truncated to a smaller peptide that retains the same type of biological activity profile. In certain embodiments, truncating Peptide A-8R [SEQ ID NO: 1] results in greater potency upon conversion of some of the pharmacophore functionalities to peptidomimetic groups that can, in turn, enhance key interactions by lowering the net binding energy. In one experiment, Peptide A-8R [SEQ ID NO: 1] was divided into two parts, using the central proline residue as the division point. […] A minimum number of amino acids desired for cytotoxicity was then identified. […] The following Peptide A truncated and derivative probes were synthesized and evaluated for their effect on cytotoxicity after 3- and 6-day exposures:
# The following table lists cell culture data for truncated Peptide A peptides. The amino acid sequences and IC50 values in μM concentrations depict cytotoxicity after 3- and 6-day exposures (“NotA” means not active). “8R” [SEQ ID NO: 6] signifies that 8 arginines are present on the carboxy terminus to mediate membrane translocation. The data has shown that the 8R terminus [SEQ ID NO: 6] can be either as the free carboxy (—OH) or amide (—NH2) with no alteration of permeation or observed activity.
# The table below lists LNCaP cell culture data for various Peptide A derivatives, displaying the observed IC50 values in μM concentrations after 3- and 6-day exposures.
# [4] = test system: PC-3 prostate cancer cells; experiment: PC-3 cell density with peptide; type: cell-based; conditions: even at 100 μM; 3 or 6 days; no endogenous sGCα1
# Method: FIG. 17A: PC-3 prostate cancer cells were grown for 3 or 6 days in the presence of increasing concentration of Peptide A-8R [SEQ ID NO: 1] or vehicle and then cell density was measured.
# [5] = test system: C81 (androgen-refractory LNCaP) cells; experiment: C81 cell density with peptide; type: cell-based; conditions: 10 μM peptide; 1-8 hrs
# Method: FIG. 15B: C81 (androgen-refractory LNCaP) cells were grown for 1-8 hrs in the presence of 10 μM Peptide A-8R [SEQ ID NO: 1] or vehicle and then cell density was measured.
# as §1
substance,measurement,setting,value
Ac-TFCKAFPFHIIRRRRRRRR-OH [Peptide A-8R],cytotoxicity to Capan-2 cells,[1],strongly cytotoxic
same,tumor growth during treatment,"LNCaP xenograft tumors; 80 mg/kg daily intratumoral, seven daily injections",strongly inhibited tumor growth and actually caused tumor regression
same,tumor growth after stopping peptide injection,"LNCaP xenograft tumors; additional 2-3 weeks untreated, versus Vehicle",grew significantly more slowly
same,effect on ACHN cells,[2],little to no effect
same,killing of CWR22-Rv1 cells,[3],able to kill
same,"cell number, time course","LNCaP cells; LNCaP, 10 μM peptide, 1-8 hrs",steep decline in cell number with one hour
same,cell death,"LNCaP cells; LNCaP, peptide treatment, by day 6",100%
same,effect on LNCaP cell growth / cytotoxicity (in words),"LNCaP cells; increasing concentration of peptide, days, with or without 1 nM R1881",highly cytotoxic; also recorded: induced LNCaP cell death in both the absence and presence of androgens
same,Cytotoxicity,LNCaP cell culture,Yes
same,effect on PC-3 cells,[4],little to no effect
same,killing of C81 cells,[5],very effective at killing

# From US9546196B2, “Compositions and methods of treatment of cancers” (The University of Toledo, priority 2009, dated 2017)
